In data set [1] the target is dipeptidyl peptidase (DP IV) (UniProt P27487). Briefly: Determination of IC50 against DP IV (hydrolysis of Gly-Pro-pNA). Format: biochemical, porcine kidney or recombinant human. The note with it: compounds obtained by preparative synthesis. The method in brief:
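Porcine kidney or recombinant human DP IV (about 40–50 μU/ml) in HEPES pH 7.6 (I=0.32) with Gly-Pro-pNA at room temperature, 5% DMSO, 11 twofold dilutions from 100 μM final. pNA release at 405 nm over ~18 min; slopes give residual activity versus solvent, IC50 by 4-parameter fit.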

Data set [2] can be described thus: Caco-2 transport assay. It is filed as in vitro ADME, human. To be noted: human, Caco-2, pH 7.5. Here is the method:
(§1) The concentration of compounds in the Caco experiments may be determined from their potency to inhibit recombinant human DP IV.
(§2) Reaction is started by addition of 20 μl rhDP IV and release of pNA was monitored at 405 nm. Samples are analyzed in several dilutions (undiluted, 1:10, 1:[…]). Dilutions are done in the Caco assay buffer. Activity measured with Caco-assay buffer alone is set to 100% and inhibitor concentration is calculated from the dilutions resulting in 20 to 80% inhibition according to the equation for competitive inhibition.
(§3) [formula] • I=inhibitor concentration • v0=velocity of the reaction without inhibitor (Caco assay buffer alone) • vi=velocity of the reaction with inhibitor sample • Ki=Ki-value of the compound • DF=dilution factor of the sample Transport Assay
(§4) The human colon adenocarcinome cell line Caco-2 are grown in 6- or 24-transwell microplates (Costar) for 21 days with MEM-alpha containing 10% FBS and 0.5% Gentamycin (Invitrogen). After 21 days of cultivation integrity of the cell layer are assessed by measurement of the transepitelial electrical resistance.
(§5) Transport measurements are carried out in triplicates at a pH of 7.5. For each compound and direction (apical to basal (a-b), basal to apical (b-a)) two separate experiments are done. Samples are collected from the donor and acceptor compartments at the beginning of the experiment and after 60 min (for 6-well plates, Donor at 0 and 120 min, Acceptor at 15, 30, 60 and 120 min).
(§6) Samples are analyzed in several dilutions for their ability to inhibit human recombinant DP IV and compound concentrations may be calculated using the prior determined Ki-value (see above).
(§7) The permeability coefficient Papp is calculated according to the following equation:
(§8) [formula] • VA=Volume of the acceptor compartment • A=Area of the transwell membrane • t=sampling time • cAt=concentration in the acceptor compartment at sampling time • CDO=concentration in the donor compartment at t=0
(§9) Papp-values>1e-5 cm/s are assessed as good permeable, value<1e-6 cm/s as not permeable. Papp-values in between as medium permeable. Compounds where no significant difference were found between a-b and b-a transport are assessed to be passive transported.
A general note: Passage across Caco-2 layers is used to estimate intestinal permeability.

The subject of data set [3] is Caco-2 monolayer. The data set is described as follows: Caco-2 transport assay. Format: in vitro ADME, human. To be noted: assessment of permeability and transport type. Here is the method:
as §1, §2, §3, §4, §5, §6, §7, §8, §9

A short description of data set [4]: solubility (dosing solution in saline). It is filed as physicochemical. The note with it: compounds were dissolved in saline for dosing. The method, then:
The animals were treated by a single oral dose of 3 mg/kg (5 mL/kg b.w.; treatment A) followed by a wash-out period of at least 3 days before intraarterial administration of 3 mg/kg (2 mL/kg b.w.; treatment B). The compounds were dissolved in saline to a final concentration adequate for an application of 3 mg/kg b.w.

The target in data set [5] is DPII (Homo sapiens, UniProt Q9UHL4). Briefly: DPII assay. Format: biochemical. Here is the method:
(§10) Determination of IC50 values for DPII and DP9 are done similarly as described for DP IV.
For DPII instead of the HEPES buffer a 0.2 M sodium acetate buffer pH 5.5 is used. As substrate Gly-Pro-AMC is used in a final concentration of 1 mM.

Data set [6] concerns neuroblastoma cell line SY5Y. The data set is described as follows: LD50 determination on SY5Y (LDH). Format: cell-based. The note with it: 8 serial dilutions, highest concentration 1 mM. Here is the method:
After 24 h of cultivation in a 96 well plate (50 000 cells/well) compounds (dissolved in DMSO) are added and cytotoxicity and vitality of the cells are analysed after another 24 h of cultivation using the CytoTox-One Homogenoeous membrane toxicity assay (Promega).
For cytotoxicity the LDH activity in the cell culture media after 24 h of incubation are analysed. The untreated control is set to 0% cytotoxicity. For the 100% value LDH activity of lysed untreated cells are analysed.
For viability cell culture media are removed from the cells and all cells are lysed using the lysis buffer. LDH activity is determined and untreated control is set to 100% viability.
For determination of LD50 the liver carcinoma cell line HEP-G2 and the neuroblastoma cell line SY5Y may be used. The effect of 8 serial dilutions of the compounds (highest concentration 1 mM) is investigated as described above.

The target of data set [7] is DP IV (Homo sapiens, UniProt P27487). The data set is described as follows: Ki and inhibition type, DP IV. It is filed as biochemical. The note with it: compounds obtained by preparative synthesis. The essentials:
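Ki by non-linear regression of 7 inhibitor dilutions (range from IC50) against 4 substrate dilutions, in triplicate, using purified human recombinant enzyme under IC50 assay conditions. Inhibition type assigned from the best-fitting equation (competitive, partial competitive, non-competitive); […].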

For data set [8], the system named is liver cell carcinoma cell line Hep-G2. The data set is described as follows: Cytotoxicity screening and LD50 determination on Hep-G2 (LDH, CytoTox-One). Format: cell-based. To be noted: 8 serial dilutions, highest concentration 1 mM. The method in brief: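 Hep-G2 cells (50 000/well) precultured 24 h, then compound in DMSO (final 1%) added for 24 h. Screen at 100 μM, 2 μM, 40 nM in triplicate. LDH in medium gave cytotoxicity (untreated 0%, lysed 100%); LDH of lysed cells gave viability. LD50 from 8 serial dilutions, top 1 mM.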

Data set [9] deals with DP9 (Homo sapiens, UniProt Q86TI2). Briefly: DP9 assay. Format: biochemical. The method, then: as §10
For DP9 Gly Pro-AMC is used as substrate in a final concentration of 0.25 mM.

Molecules are shown by their SMILES.

Sequence of DP9 (Q86TI2 whole entry, species assumed): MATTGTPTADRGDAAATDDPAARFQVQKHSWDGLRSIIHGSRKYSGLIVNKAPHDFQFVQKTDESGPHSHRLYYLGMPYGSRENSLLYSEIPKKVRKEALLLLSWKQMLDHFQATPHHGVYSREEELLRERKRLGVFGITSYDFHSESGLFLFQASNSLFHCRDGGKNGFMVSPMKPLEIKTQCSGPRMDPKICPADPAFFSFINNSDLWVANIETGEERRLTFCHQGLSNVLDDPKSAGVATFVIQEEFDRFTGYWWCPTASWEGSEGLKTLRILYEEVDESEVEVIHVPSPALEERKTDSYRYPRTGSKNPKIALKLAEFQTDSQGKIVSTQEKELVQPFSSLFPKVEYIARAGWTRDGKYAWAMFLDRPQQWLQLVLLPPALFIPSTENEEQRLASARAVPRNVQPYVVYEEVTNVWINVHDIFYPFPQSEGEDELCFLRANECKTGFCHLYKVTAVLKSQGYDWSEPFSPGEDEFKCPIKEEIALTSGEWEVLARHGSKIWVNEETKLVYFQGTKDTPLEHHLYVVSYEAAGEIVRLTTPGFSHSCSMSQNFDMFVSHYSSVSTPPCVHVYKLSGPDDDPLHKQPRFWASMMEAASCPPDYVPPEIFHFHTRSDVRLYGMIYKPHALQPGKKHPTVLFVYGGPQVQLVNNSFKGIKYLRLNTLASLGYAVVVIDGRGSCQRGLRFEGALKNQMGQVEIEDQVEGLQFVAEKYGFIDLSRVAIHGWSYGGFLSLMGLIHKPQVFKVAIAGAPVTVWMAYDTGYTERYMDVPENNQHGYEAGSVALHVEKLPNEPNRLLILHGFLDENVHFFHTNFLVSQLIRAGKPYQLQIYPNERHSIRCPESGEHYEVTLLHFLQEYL
Sequence of DP IV (P27487 whole entry): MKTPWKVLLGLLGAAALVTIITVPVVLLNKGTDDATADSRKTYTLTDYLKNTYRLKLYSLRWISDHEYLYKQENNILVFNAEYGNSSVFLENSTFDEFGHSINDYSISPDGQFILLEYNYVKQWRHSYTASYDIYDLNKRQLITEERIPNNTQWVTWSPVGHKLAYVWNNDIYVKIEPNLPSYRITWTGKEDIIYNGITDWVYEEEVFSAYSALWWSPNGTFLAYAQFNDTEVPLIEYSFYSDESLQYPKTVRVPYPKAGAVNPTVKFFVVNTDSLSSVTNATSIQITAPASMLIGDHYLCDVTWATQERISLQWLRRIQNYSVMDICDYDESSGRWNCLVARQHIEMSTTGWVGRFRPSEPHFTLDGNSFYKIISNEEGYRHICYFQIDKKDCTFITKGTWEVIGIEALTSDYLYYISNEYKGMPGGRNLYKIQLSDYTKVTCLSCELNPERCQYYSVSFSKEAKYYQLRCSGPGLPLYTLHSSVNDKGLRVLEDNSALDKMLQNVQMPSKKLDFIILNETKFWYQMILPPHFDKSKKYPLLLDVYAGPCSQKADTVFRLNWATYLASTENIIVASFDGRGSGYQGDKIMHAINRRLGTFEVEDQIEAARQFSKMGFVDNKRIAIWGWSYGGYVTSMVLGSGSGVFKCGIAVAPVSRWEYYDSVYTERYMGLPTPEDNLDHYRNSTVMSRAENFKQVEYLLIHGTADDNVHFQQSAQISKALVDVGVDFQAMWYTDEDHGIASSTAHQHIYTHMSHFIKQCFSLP

Consider `CCOc1ccccc1Cn1cnc(-c2ccc(Cl)cc2Cl)c1CN` [Example 128b, (1-(2-ethoxybenzyl)-4-(2,4-dichlorophenyl)-1H-imidazol-5-yl)methanamine], for which the IC50 in data set [1] came out at 0.054 µM; in [5] (sodium acetate buffer pH 5.5, Gly-Pro-AMC 1 mM) it was 3.42 µM; in data set [9] (Gly Pro-AMC 0.25 mM) it was 34.3 µM. In [2] (apical to basal), this molecule yielded a Papp A→B of 45.1 ×10⁻⁶ cm/s. This molecule yielded a Papp B→A in [2] (basal to apical) of 15 ×10⁻⁶ cm/s. For the same molecule, the Transport entry in data set [3] is “good, active in”. Further, the solubility entry in data set [4] is given as “low solubility”. Moreover, the inhibition constant Ki turned out to be 1.57 µM in [5] and 0.00633 µM in [7]. The “Selectivity DPII(IC50)/DPIV(Ki)” value in [5] (ratio IC50 DPII / Ki DP IV) is reported as 540. The “LD50 Viability SY5Y” value in [6] came to 0.07 mM. For the same molecule, in [6], the “LD50 cytotox SY5Y” value was 0.15 mM. Besides, in data set [8], the “LD50 Viability HEP-G2” value turned out to be 0.15 mM. The “LD50 cytotox HEP-G2” value in data set [8] is 0.14 mM. In addition, the “Selectivity DP9(IC50)/DPIV(Ki)” value in data set [9] (ratio IC50 DP9 / Ki DP IV) is on record as 5,419.

Usually IC50 stands for the concentration at which inhibition is half-maximal. As usually defined, the Papp A→B is how fast a substance crosses the layer from the apical side. The term Papp B→A denotes the apparent permeability from the basolateral to the apical side of a cell layer. The Ki is a measure of affinity in units of concentration, obtained from inhibition or displacement.

These data come from patent US7728146B2, “Enzyme inhibitors” (Probiodrug AG, priority 2006, dated 2010).
